{"source": "patent US9045474B2", "about": "“Compounds and compositions for mitigating tissue damage and lethality” (The Regents of the University of California, priority 2010, dated 2015)", "key": {"C3H mice": {"test_system": "C3H mice", "assay": "Mitigation of radiation-induced lethality in C3H mice (8Gy, LD100/30)", "protocol": "Radiomitigation studies were conduced by pre-treating C3H mice with the compounds of interest at as concentration of 75 mg/kg and at 24 hrs and 1 hr before an 8 Gy exposure. On a 5×24 mitigation treatment protocol mice were first lethally irradiated with 8 Gy and 24 hrs later received the first subcutaneous injection with the compound suspension with subsequent injections at 48, 72, 96, and 120 hrs. The concentration of the compound in the suspension was 75 mg/kg carrier with either 1N saline or phosphate buffer solution (PBS).\nC3H mice in the mitigation experiment were irradiated with 8Gy and then injected with 75 mg/kg 1 hr post exposure and then again 25 hrs post exposure."}, "primary keratinocytes": {"test_system": "primary keratinocytes", "assay": "Proliferation of primary keratinocytes after 5Gy irradiation", "assay_type": "cell-based, human", "details": "5 uM, cultured 11 days", "method": "After the IR the cells were treated with Yel002 and cultured for 11 days."}, "[1]": {"test_system": "yeast DEL tester strain RS112", "assay": "DEL assay, UV radiation-induced damage", "assay_type": "cell-based, Saccharomyces cerevisiae", "method": "DEL tester strain was irradiated with 4000 J/m^2 in the ultraviolet range and treated with Yel001 or Yel002 at 60 minutes at the concentration of 15 uM."}, "[2]": {"test_system": "primary human keratinocytes", "assay": "Senescence of primary keratinocytes in co-culture", "assay_type": "cell-based"}, "DBA/2 Mice": {"test_system": "DBA/2 Mice", "assay": "Radiation-induced leukemia model", "assay_type": "in vivo, mouse", "method": "DBA/2 Mice (15/group) were irradiated with ^60Co (3.5 Gy, 0.6 Gy/min) to induce leukemia. One group received no drug, another group of mice were injected s.c. with Yel001 or Yel002 (25 mg/kg) with 5 injections for 5 days. Leukemogenesis was monitored for 90 days. Blood was drawn at days −1, 21, 42, and 63 to monitor for leukemia every 21 days to monitor for leukemia development using WBCs and differentials. This leukemia model takes advantage of non-targeted radiation effects, which are important to the carcinogenic process. This model has a shorter latency period to gamma radiation-induced leukemia (latency to 50% leukemic population: 107 days) than other murine leukemia models such as CBA mouse (399 days: 50% leukemic population). DBA/2 mice were irradiated with 3.5 Gy (^60Co 0.60 Gy/min) and then injected intravenously with (5×10^6) FDC-P1 cells. Animals were then monitored 5×/weekly for 10 weeks-post-injection and then daily after 10 weeks-post-injection until leukemia development and/or euthanasia. After the animal has been determined to be leukemic using hematological parameters, it is euthanized and a necropsy is conducted to definitively determine a conclusive diagnosis of leukemia. Control animals not developing leukemia are assessed at 270 days post experiment initiation. At that time they are euthanized and necropsied."}}, "note": "Where “and” joins values, the source holds several entries; their conditions need not be identical. Equal entries are not always repeated. Entries after “also recorded” stand apart in the source; their conditions may differ.", "data": [{"smiles": "COc1ccc2cc(-c3nc4ccc(C)cn4c3NCc3ccco3)c(=O)[nH]c2c1", "note": "[Yel002]", "values": [{"measurement": "mitigation efficacy", "setting": "C3H mice; 8Gy, 75 mg/kg 1.25 protocol", "result": "show activity"}, {"measurement": "mice survived LD100/30 irradiation", "setting": "C3H mice; 8Gy, 75 mg/kg at 1 hr and 25 hrs post exposure, past 30 days, first small study", "result": 67, "unit": "%"}, {"measurement": "survival at 30 days", "setting": "C3H mice; 8Gy, 75 mg/kg s.c. at 24, 48, 72, 96, 120 hrs (5×24)", "result": "100% and 75%"}, {"measurement": "survival at 30 days", "setting": "C3H mice; 8Gy, 75 mg/kg s.c. at 24, 48, 72, 96, 120 hrs (5×24), listed as Yel2", "result": 100, "unit": "%"}, {"measurement": "survival at 30 days", "setting": "C3H mice; 8Gy, 75 mg/kg s.c. at 1 hr and 25 hrs (1.25 schedule)", "result": 88, "unit": "%"}, {"measurement": "percentage of survivors", "setting": "C3H mice; 8Gy, both protocols, 252 days post irradiation", "result": 40, "unit": "%"}, {"measurement": "animals still alive beyond 30 day window", "setting": "C3H mice; 8Gy, both protocols, +292 days", "result": 40, "unit": "%"}, {"measurement": "survival, oral (gavage) administration", "setting": "C3H mice; 8Gy, oral gavage in saline, 5×24 schedule", "result": 33, "unit": "%"}, {"measurement": "dose modifying factor (DMF)", "setting": "C3H mice; at LD50/30, 7Gy to 9.1 Gy, 75 mg/kg 5×24 s.c.", "result": 1.15}, {"measurement": "proliferation as compared to controls", "setting": "primary keratinocytes", "result": "increased proliferation"}, {"measurement": "UV genotoxicity and cytotoxicity", "setting": "[1]; 15 uM, P<0.05", "result": "reduces cell death and genotoxicity; also recorded: significantly reduces genotoxicity and cytotoxicity"}, {"measurement": "survival", "setting": "[1]; 4000 J/m^2 UV, 15 uM at 60 minutes, untreated 0.64%", "result": 1.84, "unit": "%"}, {"measurement": "doubling time of the cells", "setting": "[2]", "result": "extended the doubling time"}, {"measurement": "progression into senescence", "setting": "[2]; 5 uM", "result": "decreased progression of cells into senescence; also recorded: decreases the progression into senescence"}, {"measurement": "first development of leukemia", "setting": "DBA/2 Mice; 3.5 Gy, 25 mg/kg s.c., no drug also within 42 days", "result": 42, "unit": "days"}, {"measurement": "mice exhibiting leukemia", "setting": "DBA/2 Mice; Day 94, 3.5 Gy, 25 mg/kg s.c. 5 injections, irradiated controls 30%", "result": 10, "unit": "%"}, {"measurement": "leukemia frequency", "setting": "DBA/2 Mice; Day 270, irradiated population 90%", "result": 40, "unit": "%"}, {"measurement": "latency to leukemia development", "setting": "DBA/2 Mice; FIG. 17", "result": "increased latency to leukemia development"}, {"measurement": "frequency of radiation induced and/or spontaneous cancer", "setting": "DBA/2 Mice; FIG. 18", "result": "effective for reducing the frequency of radiation induced and spontaneous cancer"}]}]}
